The values that follow are results of earlier work, collected in patent publication US10758479B2, “Galenical form for the administration of active ingredients by transmucous means” (priority 2006, dated 2020).

For series [1] the following is noted: nasal, per-mucous path.

With `CNS(=O)(=O)Cc1ccc2[nH]cc(CCN(C)C)c2c1` [Sumatriptan], the period of action entry (administered enterally) is given as “about two”. Further, the residual bioavailability entry (administered via the digestive tract) is recorded as “less than 14 % of the administered dose”.

For the molecule `C[C@]12CC[C@@H]3c4ccc(O)cc4CC[C@H]3[C@@H]1CC[C@@H]2O` [estradiol], the mean bioavailability result in series [1] is recorded as “less than 25 % of the administered dose”.

In the case of `CN(C)C(=O)C(CCN1CCC(O)(c2ccc(Cl)cc2)CC1)(c1ccccc1)c1ccccc1` [loperamide, Loperamide], the “portion of the effectively bioavailable dose” value (in the 2 mg administered by the digestive tract) is listed as no more than 0.25 mg.
